According to ChEMBL document CHEMBL1201862, “PubChem BioAssay data set” (2004):
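In this assay, cells in 96-well plates receive the compound at five concentrations for 48 hours. Endpoints are linearly interpolated between the surrounding concentrations. GI50 is the concentration that inhibits growth by half.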 Activity calls are given as the source filed them. Rule as the data show it: active = GI50 up to about 1.1 µM and inactive = higher.

Legend:
Assay in all cases: DTP human tumour cell line panel, 48 h
HCT-116 = tested on: HCT-116
CAKI-1 = tested on: CAKI-1
HOP-92 = tested on: HOP-92
COLO 205 = tested on: COLO 205
HL-60 = tested on: HL-60
NCI-H460 = tested on: NCI-H460
T47D = tested on: T47D
UACC-257 = tested on: UACC-257
UO-31 = tested on: UO-31
ACHN = tested on: ACHN
NCI-H23 = tested on: NCI-H23
SK-MEL-2 = tested on: SK-MEL-2
SF-268 = tested on: SF-268
OVCAR-5 = tested on: OVCAR-5
OVCAR-4 = tested on: OVCAR-4
Malme-3M = tested on: Malme-3M
SK-OV-3 = tested on: SK-OV-3
TK-10 = tested on: TK-10
NCI-H522 = tested on: NCI-H522

Measured: GI50

O=C(O)c1cc2ccccc2c(/N=N/c2ccc(S(=O)(=O)Nc3nccs3)cc2)c1O
inactive: HCT-116 > 100 µM | CAKI-1 > 100 µM | HOP-92 > 100 µM | COLO 205 > 100 µM | HL-60 > 100 µM | NCI-H460 > 100 µM | T47D > 100 µM | UACC-257 > 100 µM | UO-31 > 100 µM | ACHN > 100 µM | NCI-H23 > 100 µM | SK-MEL-2 > 100 µM | SF-268 > 100 µM | OVCAR-5 > 100 µM | OVCAR-4 > 100 µM | Malme-3M > 100 µM | SK-OV-3 > 100 µM | TK-10 > 100 µM | NCI-H522 > 100 µM

O=C(c1ccccc1)N1C(=S)N(c2ccccn2)C(=N/c2ccccc2)/C1=N\c1ccccc1
inactive: HCT-116 12.8 µM | CAKI-1 10.5 µM | HOP-92 6.67 µM | COLO 205 28.8 µM | HL-60 3.66 µM | NCI-H460 29.5 µM | T47D 15.1 µM | UACC-257 23 µM | UO-31 9.68 µM | ACHN 9.93 µM | NCI-H23 6.4 µM | SK-MEL-2 13.6 µM | SF-268 24.9 µM | OVCAR-5 11.2 µM | OVCAR-4 10.5 µM | Malme-3M 20 µM | SK-OV-3 43.6 µM | TK-10 25.1 µM | NCI-H522 2.16 µM

COC(=O)[C@@H]1[C@H]2CC[C@]3(C)[C@@H](OC(C)=O)CC[C@H]3[C@@H]2CC[C@H]1C1(C)SCCS1
inactive: HCT-116 19.6 µM | CAKI-1 41.6 µM | HOP-92 18.7 µM | COLO 205 13.5 µM | HL-60 18.2 µM | NCI-H460 29.3 µM | T47D 20.4 µM | UACC-257 25.2 µM | UO-31 38.6 µM | ACHN 37.2 µM | NCI-H23 37.2 µM | SK-MEL-2 19 µM | SF-268 44.4 µM | OVCAR-5 22.8 µM | OVCAR-4 25.1 µM | Malme-3M 18.9 µM | SK-OV-3 53.6 µM | TK-10 75 µM | NCI-H522 30.5 µM

COc1cc(/C=C2\C(=O)N(Cc3ccccc3)C(c3ccccc3)S2(=O)=O)cc(OC)c1OC (stereo not drawn)
inactive: HCT-116 17.6 µM | CAKI-1 > 100 µM | HOP-92 50.2 µM | COLO 205 21.3 µM | HL-60 5.13 µM | NCI-H460 35.4 µM | T47D 29.2 µM | UACC-257 26.2 µM | UO-31 21.8 µM | ACHN 67.3 µM | NCI-H23 33.4 µM | SK-MEL-2 27.1 µM | SF-268 31.3 µM | OVCAR-5 > 100 µM | OVCAR-4 17.5 µM | Malme-3M 39.9 µM | SK-OV-3 > 100 µM | TK-10 36.1 µM | NCI-H522 14.2 µM

CC(C)(C)c1ccc2c(c1)C#Cc1cc3c(cc1OCCCO2)C#Cc1cc(C(C)(C)C)ccc1OCCCO3
inactive: HCT-116 > 100 µM | CAKI-1 > 100 µM | HOP-92 > 100 µM | COLO 205 > 100 µM | HL-60 > 100 µM | NCI-H460 > 100 µM | T47D > 100 µM | UACC-257 > 100 µM | ACHN > 100 µM | NCI-H23 2.2 µM | SK-MEL-2 > 100 µM | SF-268 > 100 µM | OVCAR-5 > 100 µM | OVCAR-4 > 100 µM | Malme-3M > 100 µM | SK-OV-3 > 100 µM | TK-10 > 100 µM | NCI-H522 > 100 µM

Cc1cccc(Nc2nc(NNC(=O)Cc3ccccc3)nc(NNC(=O)c3ccncc3)n2)c1
inactive: HCT-116 > 10 µM | CAKI-1 > 10 µM | HOP-92 > 10 µM | COLO 205 > 10 µM | HL-60 > 10 µM | NCI-H460 > 10 µM | T47D > 10 µM | UACC-257 > 10 µM | UO-31 > 10 µM | ACHN > 10 µM | NCI-H23 > 10 µM | SF-268 > 10 µM | OVCAR-4 > 10 µM | Malme-3M > 10 µM | SK-OV-3 > 10 µM | TK-10 > 10 µM | NCI-H522 > 10 µM

CC(=O)O[C@H]1[C@@H]2OC(=O)[C@@](O)(CC3CCCO3)[C@@H]2CC(=O)[C@](C)(O)CC/C=C(\C)CCC[C@@H]1C (stereo partly drawn)
inactive: CAKI-1 19.9 µM | HOP-92 28.2 µM | COLO 205 18.6 µM | HL-60 21.5 µM | NCI-H460 > 100 µM | T47D 24.8 µM | UACC-257 70.3 µM | UO-31 61.8 µM | ACHN 38.8 µM | SK-MEL-2 57.5 µM | SF-268 > 100 µM | OVCAR-5 > 100 µM | OVCAR-4 52.8 µM | Malme-3M 41.2 µM | TK-10 40.8 µM | NCI-H522 25.8 µM

CCN1CCC(O)(c2ccc(Oc3ccccc3)cc2)C(C(=O)c2ccc(Oc3ccccc3)cc2)C1 (stereo not drawn)
inactive: HCT-116 9.27 µM | CAKI-1 16.4 µM | HOP-92 8.87 µM | COLO 205 13.6 µM | HL-60 3.75 µM | NCI-H460 3.85 µM | T47D 11.6 µM | UACC-257 12.7 µM | UO-31 7.94 µM | ACHN 15.5 µM | NCI-H23 13.4 µM | SK-MEL-2 15.1 µM | SF-268 16.3 µM | OVCAR-5 15.4 µM | OVCAR-4 10.6 µM | Malme-3M 17.1 µM | TK-10 13.7 µM | NCI-H522 19.6 µM

CCCc1cn2c(/C=N/NC(=N)N)c(-c3cc([N+](=O)[O-])c(Cl)cc3Cl)nc2s1
inactive: HCT-116 1.32 µM | CAKI-1 1.77 µM | HOP-92 1.69 µM | COLO 205 1.48 µM | HL-60 1.76 µM | NCI-H460 1.72 µM | T47D 1.38 µM | UACC-257 1.66 µM | UO-31 1.79 µM | ACHN 1.77 µM | NCI-H23 1.67 µM | SK-MEL-2 1.87 µM | SF-268 1.69 µM | OVCAR-5 1.75 µM | OVCAR-4 1.46 µM | SK-OV-3 1.91 µM | TK-10 1.12 µM | NCI-H522 2.18 µM

N#CC1=C(S)N(C2OC(CO)C(O)C(O)C2O)C(c2ccccc2)=CC1c1cccs1 (stereo not drawn)
inactive: HCT-116 26.3 µM | CAKI-1 23.1 µM | HOP-92 23.3 µM | COLO 205 21.1 µM | HL-60 28.9 µM | NCI-H460 17.7 µM | T47D 19.2 µM | UACC-257 21.7 µM | UO-31 48.8 µM | ACHN 18.7 µM | NCI-H23 28.1 µM | SK-MEL-2 22.5 µM | SF-268 24.8 µM | OVCAR-5 51.1 µM | OVCAR-4 33.8 µM | Malme-3M 19.3 µM | TK-10 29 µM | NCI-H522 18.1 µM

CC(C)(C)OC(=O)[N+](=N)C(=O)C1CCC(=O)N1C(=O)OCc1ccccc1 (stereo not drawn)
inactive: HCT-116 > 100 µM | CAKI-1 > 100 µM | HOP-92 > 100 µM | COLO 205 > 100 µM | HL-60 > 100 µM | NCI-H460 > 100 µM | T47D > 100 µM | UO-31 > 100 µM | ACHN > 100 µM | NCI-H23 > 100 µM | SF-268 > 100 µM | OVCAR-5 > 100 µM | OVCAR-4 > 100 µM | Malme-3M > 100 µM | SK-OV-3 > 100 µM | TK-10 > 100 µM | NCI-H522 > 100 µM
